The target in one series is GIRK1/4 (Homo sapiens (Human), UniProt P48544+P48549). Put plainly: GIRK1/4 activity assay (Quattro/IonWorks population patch clamp, inward potassium current). It is filed as cell-based. Conditions: GIRK1/4 HEK293 stable cells; current inhibition normalized to DMSO-only control. The protocol: The GIRK1/4 activity of a compound according to the present invention was assessed by the following in vitro method.
• a. External buffer: 10 mM NaCl, 50 mM Na Gluconate, 80 mM K Gluconate, 1.8 mM CaCl2, 1 mM MgCl2, 10 mM HEPES, 10 mM Glucose, pH 7.4; osmolarity 300-310 Osm/L. • b. Internal buffer: 30 mM KCl, 100 mM K Gluconate, 1 mM MgCl2, 10 mM HEPES, 1 mM EGTA, 10 mM NaCl, pH 7.2; osmolarity 284-292 Osm/L. Compounds: • c. Prepare seven-fold compound dilution series (10 mM to 20 uM) in 100% DMSO, in 384-well polypropylene plates. • d. Propafenone (Sigma Aldrich, catalog number P4670) was used as a positive control and DMSO for neutral control • e. Resuspend 1 μl of compounds in DMSO into 66.7 μl external buffer in 384-well polypropylene plate and load into Plate 1 section of Molecular Devices Quattro® Quattro Setup: • f. Load 384-well Population Patch Plate (Molecular Devices #9000-0902) into Quattro • g. Fill Quattro F-soak trough with 20% DMSO and 50% EtOH • h. Fill Quattro buffer trough with external buffer • i. Attach internal buffer flask to Quattro internal buffer tubing • j. Attach PBS (Phosphate Buffered Saline, minus Ca^++ and Mg^++, pH7.4) bottle to F-head & E-head wash on Quattro Antibiotic: • k. Resuspend 5.1-5.8 mg amphotericin B (Sigma Aldrich, catalog number A2411) in 175 μl DMSO • l. Add the resulting solution to 50 mL internal buffer and attach to antibiotic tubing port on Quattro Cells: • m. Use GIRK1/4 HEK293 stable cells (obtained from ChanTest, 14656 Neo Parkway, Cleveland, Ohio 44128) grown to ˜80% confluency in the following cell culture medium: DMEM containing 10% (v/v) Fetal Bovine Serum, Penicillin/Streptomycin (at “IX” concentration from a 100× stock), 0.5 mg/mL G418 and 0.1 mg/mL Zeocin. • n. Detach cells using Detachin (Genlantis, 11011 Torreyana, San Diego, CA 92121), washed with PBS (minus Ca^++ and Mg^++) and resuspend in external buffer (5 mL final volume at 2.0-2.1×10^6 cells/mL) • o. Load into cell trough of Quattro Assay Protocol:
Quattro was controlled using IonWorks v2 software to perform the following steps: • p. Added 3.5 μl cells plus 3.5 μl external buffer to wells of Quattro Patch Plate® • q. Circulated amphotericin B and internal buffer onto cells • r. Applied the following voltage protocol: Pulse 1: 15 mV for 300 milliseconds (ms), followed by Pulse 2: −120 mV for 400 ms, then Pulse 3: −15 mV for 400 ms, and finally Pulse 4: −120 mV to 40 mV over 500 ms (this is a voltage ramp). • s. Measured magnitude of inward potassium current at time point between 1200-1220 ms from start of Pulse 1 (i.e., during the voltage ramp phase). • t. Added 3.5 μl of diluted compounds (or DMSO) to wells and repeated […] (final compound concentrations are 50 uM to 0.1 uM, and each concentration was tested in quadruplicate—i.e., in 4 separate wells). • u. The difference between current magnitude pre vs. post-compound gave a measure of GIRK1/4 inhibition. Data Analysis:
IC50 values were calculated by plotting the percentage of current inhibition (normalized to the DMSO-only control) as a function of compound concentration using standard data analysis software.
A general note: In patch-clamp work, channel activity is measured electrically.

Series [1] can be described thus: Pharmacokinetic properties in rats (IV and PO, whole blood LC-MS/MS). It is filed as in vivo, Spargue Dawley/CD, male. Conditions: for Rat AUC0-24 h 3 mg/kg: 3 mg/kg PO, suspension; for Rat AUC0-24 h 3 mg/kg / clearance: whole blood; for clearance: male, Sprague Dawley/CD, rat, IV dosing (0.3-1 mg/kg), CL = Dose/AUCinf; for Rat F: oral bioavailability, PO 3 mg/kg vs IV. The protocol: The pharmacokinetic properties of the compounds in rats were assessed by the following in vivo studies as described below.
At least four days before first drug administration, the rats (250-350 g) were anesthetized and, under aseptic conditions, catheters were surgically implanted into the left and right jugular veins (one for blood collection and the other one for intravenous injection). The catheters were exteriorized and fixed at the neck. For analgesic treatment, animals received analgesics before surgery and subsequently twice at appropriate times after surgery. The freely-moving animals equipped with catheters are kept individually in Macrolon cages, with free access to food and water throughout the experiment. After a recovery phase of at least 4 days, a single test compound was administered intravenously or orally, based upon the individual body weights.
The test articles were administered as solution in NMP:PEG 200 (10:90 v/v). Test articles where no solution can be obtained were rejected and not used in discrete or cassette dosing.
The test article were administered as suspension in MC:Tween 80:water (0.5:0.1:99.4 w/v/v).
The test article was administered as solution and as a bolus injection or as short I.V. infusion (30 seconds) via the left jugular vein catheter to conscious rats. The dose volume was 0.5 mL/kg body weight.
The test article was administered as a solution or suspension into the esophagus via a gavage tube to conscious rats. The dose volume was 5 mL/kg body weight. The exact start time of dosing and exact dose volume was noted.
Blood samples (20 μL) were collected from the right jugular vein catheter of cannulated animals (if JV catheter becomes non patent during the PK experiment (i.e., after dosing), blood can exceptionally be collected by tail vein puncture but it must be clearly specified into the in-life observations and data study rep) in tubes containing 10% of blood of 2% W/V K2 EDTA (2.0 mg/mL) at the different time intervals. Blood was collected following IV dosing at 0.083, 0.25, 0.5, 1, 2, 4, 7 and 24 h post dose. Blood was collected following PO dosing: 0.25, 0.5, 1, 2, 4, 7 and 24 h post dose.
The concentrations of compounds in whole blood were quantified using a liquid chromatography/mass spectrometry (LC-MS/MS) assay. 20 μL of each blood sample were precipitated with 100 μL of acetonitrile containing generic internal standards (carbamazepine/telmisartan/verapamil; c=50 ng/mL). The samples were vortexed thoroughly then centrifuged (5 min, 4° C.). The supernatant (80 μL) was transferred to a clean 96-well plate and mixed with 80 μL of water.
The samples were injected (1 to 20 μL) onto suitable analytical columns, using various isocratic methods and flow rates. Mobile phases typically consisting of 0.1% formic acid in water (solvent A) and 0.1% formic acid in acetonitrile (solvent B) with additional modifiers, if needed. Compounds and the internal standards were eluted at various retention times. The HPLC systems were interfaced to mass spectrometers. MS/MS analyses were carried out using electrospray ionization (ESI), typically in the positive ionization mode. Compounds and the internal standards were monitored using multiple reaction monitoring (MRM).
The standard curves employed for sample quantitation ranged over several log units. The lower limit of quantitation (LLOQ) in blood was determined and used as cutoff for the analytical sensitivity. Known amounts of the compounds were spiked into blood to create quality control samples with six known concentrations in singlets. The accuracy of the in vivo blood sample concentration determination was considered acceptable when the intra-assay accuracies obtained for the quality control samples were within 70% to 130% of the expected concentrations. Subsequently, from the time concentration data, pharmacokinetic parameters were calculated by non-compartmental regression analyses using an in house fitting program. […]

Chain of GIRK1/4 (P48549 whole entry): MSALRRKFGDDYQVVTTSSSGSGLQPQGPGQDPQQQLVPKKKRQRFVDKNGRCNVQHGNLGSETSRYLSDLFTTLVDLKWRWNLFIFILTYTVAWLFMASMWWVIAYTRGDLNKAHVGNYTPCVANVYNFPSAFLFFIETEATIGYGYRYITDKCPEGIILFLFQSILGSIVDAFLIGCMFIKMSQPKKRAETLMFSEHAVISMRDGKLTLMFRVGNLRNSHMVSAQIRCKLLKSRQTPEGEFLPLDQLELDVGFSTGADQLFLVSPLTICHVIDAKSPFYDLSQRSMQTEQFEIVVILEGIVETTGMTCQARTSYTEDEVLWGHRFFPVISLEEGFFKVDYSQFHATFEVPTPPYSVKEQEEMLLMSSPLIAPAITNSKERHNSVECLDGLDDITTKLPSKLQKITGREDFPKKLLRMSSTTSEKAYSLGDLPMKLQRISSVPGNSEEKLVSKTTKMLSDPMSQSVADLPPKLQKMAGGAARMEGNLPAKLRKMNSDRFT
Chain of GIRK1/4 (P48544 whole entry): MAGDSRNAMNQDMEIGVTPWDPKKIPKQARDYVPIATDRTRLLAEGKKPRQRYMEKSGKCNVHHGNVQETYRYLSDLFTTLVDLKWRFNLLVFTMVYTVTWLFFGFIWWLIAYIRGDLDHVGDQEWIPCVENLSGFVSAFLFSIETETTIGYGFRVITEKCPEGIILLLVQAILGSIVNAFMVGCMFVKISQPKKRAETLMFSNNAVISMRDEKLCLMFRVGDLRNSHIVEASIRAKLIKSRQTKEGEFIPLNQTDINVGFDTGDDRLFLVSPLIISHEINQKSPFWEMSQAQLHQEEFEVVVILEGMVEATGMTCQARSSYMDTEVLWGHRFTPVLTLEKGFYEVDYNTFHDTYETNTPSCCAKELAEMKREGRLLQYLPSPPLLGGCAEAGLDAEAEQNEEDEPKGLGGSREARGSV

In the case of `CNC(=O)CCOc1ncc(Cl)c2c1c(=O)cc(C)n2-c1c(Cl)cc(OC[C@@H](C)O)cc1Cl` [Example 6, (R)-3-((8-Chloro-1-(2,6-dichloro-4-(2-hydroxypropoxy)phenyl)-2-methyl-4-oxo-1,4-dihydro-1,6-naphthyridin-5-yl)oxy)-N-methylpropanamide], the concentration for half-maximal inhibition (IC50) (in general, the midpoint of a concentration-inhibition curve) against GIRK1/4 worked out at 130 nM. For the same molecule, in series [1], the “Rat AUC0-24 h 3 mg/kg” value turned out to be 3570 nMh, the clearance was 21.6 mL/min/kg and the “Rat F” value was 82%.

`CNC(=O)[C@H](C)COc1ncc(Cl)c2c1c(=O)cc(C)n2-c1c(Cl)cc(OCCO)cc1Cl` [Example 7, (R)-3-((8-Chloro-1-(2,6-dichloro-4-(2-hydroxyethoxy)phenyl)-2-methyl-4-oxo-1,4-dihydro-1,6-naphthyridin-5-yl)oxy)-N,2-dimethylpropanamide]: 70 nM corresponded to half-maximal inhibition at GIRK1/4 (IC50). In series [1], the “Rat AUC0-24 h 3 mg/kg” value was 4410 nMh, the clearance was 13.6 mL/min/kg and the “Rat F” value amounted to 61%.

The molecule `CC(=O)NCCOc1ncc(Cl)c2c1c(=O)cc(C)n2-c1c(Cl)cc(OCCO)cc1Cl` [Example 9, N-(2-((8-chloro-1-(2,6-dichloro-4-(2-hydroxyethoxy)phenyl)-2-methyl-4-oxo-1,4-dihydro-1,6-naphthyridin-5-yl)oxy)ethyl)acetamide] returned an IC50 on GIRK1/4 of 80 nM. Also, in series [1], the “Rat AUC0-24 h 3 mg/kg” value came to 1460 nMh, the clearance worked out at 24.2 mL/min/kg and the “Rat F” value stood at 40%.

`CNC(=O)[C@@H](O)COc1ncc(Cl)c2c1c(=O)cc(C)n2-c1c(Cl)cc(OCCO)cc1Cl` [Example 13, (S)-3-((8-Chloro-1-(2,6-dichloro-4-(2-hydroxyethoxy)phenyl)-2-methyl-4-oxo-1,4-dihydro-1,6-naphthyridin-5-yl)oxy)-2-hydroxy-N-methylpropanamide]: the half-inhibitory concentration (IC50) on GIRK1/4 was 60 nM. Moreover, in series [1], the “Rat AUC0-24 h 3 mg/kg” value came to 2410 nMh, the clearance came to 18.4 mL/min/kg and the “Rat F” value came out at 55%.

Turning to `CNC(=O)CCOc1ncc(Cl)c2c1c(=O)cc(C)n2-c1c(Cl)cc(OCC2(O)COC2)cc1Cl` [Example 15, 3-((8-Chloro-1-(2,6-dichloro-4-((3-hydroxyoxetan-3-yl)methoxy)phenyl)-2-methyl-4-oxo-1,4-dihydro-1,6-naphthyridin-5-yl)oxy)-N-methylpropanamide], at GIRK1/4, the IC50 was determined as 320 nM. Besides, in series [1], the “Rat AUC0-24 h 3 mg/kg” value was 1290 nMh, the clearance was 32.8 mL/min/kg and the “Rat F” value was determined as 46%.

`CNC(=O)COc1cc(Cl)c(-n2c(C)cc(=O)c3c(OCC(N)=O)ncc(Cl)c32)c(Cl)c1` [Example 17, 2-(4-(5-(2-Amino-2-oxoethoxy)-8-chloro-2-methyl-4-oxo-1,6-naphthyridin-1(4H)-yl)-3,5-dichlorophenoxy)-N-methylacetamide] had an IC50 at GIRK1/4 of 250 nM. In series [1], the “Rat AUC0-24 h 3 mg/kg” value stood at 2310 nMh, the clearance was found to be 31.7 mL/min/kg and the “Rat F” value is reported as 73%.

`CC(=O)NCCCc1ncc(Cl)c2c1c(=O)cc(C)n2-c1c(Cl)cc(OCCO)cc1Cl` [Example 19, N-(3-(8-Chloro-1-(2,6-dichloro-4-(2-hydroxyethoxy)phenyl)-2-methyl-4-oxo-1,4-dihydro-1,6-naphthyridin-5-yl)propyl)acetamide] came in with an IC50 on GIRK1/4 of 50 nM. Also, in series [1], the “Rat AUC0-24 h 3 mg/kg” value came to 1290 nMh, the clearance was 27.9 mL/min/kg and the “Rat F” value was found to be 46%.

Take `Cc1cc(=O)c2c(CCS(C)(=O)=O)ncc(Cl)c2n1-c1c(Cl)cc(OCCO)cc1Cl` [Example 20, 8-Chloro-1-(2,6-dichloro-4-(2-hydroxyethoxy)phenyl)-2-methyl-5-(2-(methylsulfonyl)ethyl)-1,6-naphthyridin-4(1H)-one]: the midpoint of inhibition against GIRK1/4, the IC50, lay at 50 nM. In series [1], the “Rat AUC0-24 h 3 mg/kg” value is recorded as 2407 nMh, the clearance is 19.8 mL/min/kg and the “Rat F” value is 44%.
